Reference: patent US6680178B2, “Profiling of protease specificity using combinatorial fluorogenic substrate libraries” (The Regents of the University of California, priority 2000, dated 2004)
Non-standard residues stand in square brackets, D forms with d. Residues, ends and D or L forms follow the SMILES beside them. *: point of attachment. ACC = NC(=O)Cc1cc(=O)oc2cc(N*)ccc12; AMC = Cc1cc(=O)oc2cc(N*)ccc12; Nle = CCCC[C@H](N)C(=O)O; CH2Cl = ClC*

Experiments:
[1] = Fluorescence properties of free and peptidyl-derivatized ACC and AMC; format: physicochemical; details: for λmax, em / λmax, ex: 25° C.; for RFU/nM1 / RFU/nM2: λex = 380 nm; for RFU/nM1: λem = 450 nm; for RFU/nM2: λem = 460 nm
Protocol: The fluorescence of free ACC and peptidyl-derivatized ACC was detected on a Spex fluorometer thermostated to 25° C. Excitation wavelengths of 300-410 nm, 5 nm intervals, were used with emission wavelengths of 410-500 nm, 5 nm intervals, to determine optimal excitation and emission parameters.

[2] = target: T1, thrombin (Homo sapiens, UniProt P00734); test: Single substrate kinetic assay with thrombin (ACC vs AMC leaving group); format: biochemical; details: thrombin 5-20 nM
T1 construct: Human thrombin, plasmin, and factor Xa were used as received; purchased Haematologic Technologies Inc. (Essex Jct., Vt.)
Protocol: (§1) Thrombin concentration ranged from 5-20 nM. The final concentration of substrate ranged from 0.005-2 mM, the concentration of DMSO in the assay was less than 5%. Hydrolysis of AMC and ACC substrates was monitored fluorometrically with an excitation wavelength of 380 nm and emission wavelength of 460 nm on a Fluoromax-2 spectrofluorometer. Cruzain (10 nM) was incubated with 600 μM of the Ac-Leu-Thr-Phe-Lys-ACC substrate. Aliquots were removed at various time points and applied to a C-18 reverse-phase HPLC column with a 10-40% gradient of 95:4.9:0.1 Acetonitrile:H2O:TFA. MALDI (PE Biosystems Voyager) mass spectrometry data was collected on the HPLC fractions.

[3] = target: T2, βI Tryptase (Homo sapiens, UniProt Q15661); test: Single substrate kinetic analysis, βI tryptase; format: biochemical; details: for Km: βI Tryptase, 30° C., pH 7.5
T2 construct: Secreted mature βI and βII tryptases were purified to homogeneity; made in house; host or cells: Pichia pastoris GS115
T2 sequence (Q15661 31-275): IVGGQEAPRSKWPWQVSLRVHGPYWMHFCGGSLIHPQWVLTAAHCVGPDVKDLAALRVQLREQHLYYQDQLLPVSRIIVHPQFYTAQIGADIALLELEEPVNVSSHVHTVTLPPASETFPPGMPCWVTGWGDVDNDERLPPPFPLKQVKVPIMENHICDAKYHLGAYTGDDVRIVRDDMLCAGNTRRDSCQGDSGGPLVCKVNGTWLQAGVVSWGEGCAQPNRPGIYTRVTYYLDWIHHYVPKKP
Protocol: (§2) Tryptase activity was monitored at 30° C. in assay buffer containing 100 mM HEPES pH 7.5 and 10% glycerol. Substrate stock solutions were prepared in DMSO. The final concentration of substrate ranged from 0.005-2 mM. The concentration of DMSO in the assay was less than 5%. The tryptase concentration was 5 nM. Hydrolysis of ACC substrates was monitored fluorometrically with an excitation wavelength of 380 nm and emission wavelength of 450 nm on a Fluoromax-2 spectrofluorimeter (JY Horiba).

[4] = target: T3, βII Tryptase (Homo sapiens, UniProt Q15661, N132K); test: Single substrate kinetic analysis, βII tryptase; format: biochemical; details: for Km: βII Tryptase, 30° C., pH 7.5
T3 construct: Secreted mature βI and βII tryptases were purified to homogeneity; made in house; host or cells: Pichia pastoris GS115
T3 sequence (Q15661 31-275 N132K): as the sequence (Q15661 31-275) above, with N102K counted along it
Protocol: as §2

[5] = target: T4, cruzain (Trypanosoma cruzi, UniProt P25779); test: Incubation of single substrate with cruzain and analysis of cleavage products (HPLC, MALDI); format: biochemical; details: cruzain 10 nM, 600 μM substrate; data not shown
T4 construct: made in house
T4 sequence (P25779 123-337): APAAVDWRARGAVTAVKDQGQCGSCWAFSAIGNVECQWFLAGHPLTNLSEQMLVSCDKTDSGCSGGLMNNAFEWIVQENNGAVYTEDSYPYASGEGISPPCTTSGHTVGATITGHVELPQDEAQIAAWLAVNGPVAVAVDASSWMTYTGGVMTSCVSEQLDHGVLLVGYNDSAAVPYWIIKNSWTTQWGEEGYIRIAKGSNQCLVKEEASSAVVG
Protocol: as §1

[6] = system: Factor Xa; test: Protease inhibition by Ac-PRNK-cmk, residual activity; format: biochemical, human; details: 100 μM Ac-PRNK-cmk, 5 minutes incubation, enzyme 50 nM
Protocol: (§3) Progress curves were obtained for tryptase (1 nM) inactivation by multiple concentrations of Ac-PRNK-cmk (50 nM to 10 μM). Activity was monitored at 30° C. in activity buffer with 100 μM Ac-PRNK-ACC substrate. The rate constant for loss of enzyme activity, kobs, was determined from a non-linear regression of the progress curve data. kobs varied linearly with inhibitor concentration. Therefore, kass, the rate constant for the inactivation of enzyme with inhibitor, was determined by linear regression analysis (Bieth, J. G. Methods in Enzymology 248: 59-84 (1995)). Several P1-basic-preferring proteases were monitored for inhibition by Ac-PRNK-cmk as follows: tryptase bI (50 nM), tryptase bII (50 nM), factor Xa (50 nM), tPA (50 nM), uPA (50 nM), thrombin (1 nM), and plasmin (5 nM) were incubated for 5 minutes with 0 μM, 10 μM, 100 μM Ac-PRNK-cmk. After incubation, residual activity was monitored as follows: Ac-PRNK-ACC was added to a final concentration of 5 μM to the samples containing tryptase βI and βII; Ac-GTAR-ACC (5 μM) was added to the factor Xa and tPA samples; Ac-QFAR-ACC (5 μM) was added to the uPA samples; Ac-nTPR-ACC (5 μM) was added to the thrombin samples; and Ac-KQWK-ACC (5 μM) was added to plasmin samples.
(§4) Progress curves were obtained for tryptase (1 nM) inactivation by multiple concentrations of Ac-PRNK-cmk (50 nM to 10 μM). […]

[7] = target: T2, βI Tryptase; test: Irreversible inhibitor kinetic analysis (progress curves), βI tryptase; format: biochemical; details: tryptase 1 nM, 30° C., 100 μM Ac-PRNK-ACC substrate
Protocol: as §3, §4

[8] = target: T5, Tryptase βII (Homo sapiens, UniProt Q15661, N132K); test: Protease inhibition by Ac-PRNK-cmk, residual activity; format: biochemical; details: 10 μM Ac-PRNK-cmk, 5 minutes incubation, enzyme 50 nM
T5 construct: Secreted mature βI and βII tryptases were purified to homogeneity; made in house; host or cells: Pichia pastoris GS115
T5 sequence (Q15661 31-275 N132K): as the sequence (Q15661 31-275) above, with N102K counted along it
Protocol: as §3
as §3, with “(Bieth” for “(Bieth, J. G. Methods in Enzymology 248: 59-84”, “bIl” for “bII”

[9] = target: T1, thrombin; test: as above; format: biochemical; details: 100 μM Ac-PRNK-cmk, 5 minutes incubation, enzyme 1 nM
Protocol: as §3
as §3, with “(Bieth” for “(Bieth, J. G. Methods in Enzymology 248: 59-84”, “bIl” for “bII”

[10] = target: T6, Tryptase βI (Homo sapiens, UniProt Q15661); test: as above; format: biochemical; details: 10 μM Ac-PRNK-cmk, 5 minutes incubation, enzyme 50 nM
T6 construct: Secreted mature βI and βII tryptases were purified to homogeneity; made in house; host or cells: Pichia pastoris GS115
T6 sequence (Q15661 31-275): as the sequence (Q15661 31-275) above
Protocol: as §3
as §3, with “(Bieth” for “(Bieth, J. G. Methods in Enzymology 248: 59-84”, “bIl” for “bII”

[11] = target: T7, uPA (Homo sapiens, UniProt P00749); test: as above; format: biochemical; details: 100 μM Ac-PRNK-cmk, 5 minutes incubation, enzyme 50 nM
T7 construct: purchased American Diagnostica (Greenwich, Conn.) or Calbiochem (San Diego, Calif.)
Protocol: as §3
as §3, with “(Bieth” for “(Bieth, J. G. Methods in Enzymology 248: 59-84”, “bIl” for “bII”

[12] = target: T8, tPA (Homo sapiens, UniProt P00750); test: as above; format: biochemical; details: 100 μM Ac-PRNK-cmk, 5 minutes incubation, enzyme 50 nM
T8 construct: purchased American Diagnostica (Greenwich, Conn.)
T8 sequence (P00750 36-562): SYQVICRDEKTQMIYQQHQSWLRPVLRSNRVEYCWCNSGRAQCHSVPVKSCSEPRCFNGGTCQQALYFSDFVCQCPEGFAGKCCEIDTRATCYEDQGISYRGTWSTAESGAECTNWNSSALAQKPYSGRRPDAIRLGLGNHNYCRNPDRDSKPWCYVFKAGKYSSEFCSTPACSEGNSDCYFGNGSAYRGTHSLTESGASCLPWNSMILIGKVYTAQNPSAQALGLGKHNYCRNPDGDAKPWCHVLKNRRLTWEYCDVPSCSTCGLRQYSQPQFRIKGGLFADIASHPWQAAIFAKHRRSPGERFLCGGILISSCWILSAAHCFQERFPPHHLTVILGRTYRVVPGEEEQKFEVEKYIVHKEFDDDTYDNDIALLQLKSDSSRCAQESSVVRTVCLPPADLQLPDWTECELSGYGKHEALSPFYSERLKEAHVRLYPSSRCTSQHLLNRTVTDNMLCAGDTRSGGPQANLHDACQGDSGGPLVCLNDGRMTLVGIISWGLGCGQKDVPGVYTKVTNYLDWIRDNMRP
Protocol: as §3
as §3, with “(Bieth” for “(Bieth, J. G. Methods in Enzymology 248: 59-84”, “bIl” for “bII”

[13] = target: T9, Plasmin (Homo sapiens, UniProt P00747); test: as above; format: biochemical; details: 100 μM Ac-PRNK-cmk, 5 minutes incubation, enzyme 5 nM
T9 construct: Human thrombin, plasmin, and factor Xa were used as received; purchased Haematologic Technologies Inc. (Essex Jct., Vt.)
T9 sequence (P00747 581-810 limits assumed): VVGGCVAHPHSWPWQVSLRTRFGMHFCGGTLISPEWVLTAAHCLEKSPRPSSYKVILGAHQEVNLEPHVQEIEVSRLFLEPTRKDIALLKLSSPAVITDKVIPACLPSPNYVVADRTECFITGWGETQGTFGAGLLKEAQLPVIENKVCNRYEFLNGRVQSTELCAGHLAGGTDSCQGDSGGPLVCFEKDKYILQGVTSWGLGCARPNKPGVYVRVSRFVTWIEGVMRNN
T9 sequence (P00747 97-580 partner limits assumed): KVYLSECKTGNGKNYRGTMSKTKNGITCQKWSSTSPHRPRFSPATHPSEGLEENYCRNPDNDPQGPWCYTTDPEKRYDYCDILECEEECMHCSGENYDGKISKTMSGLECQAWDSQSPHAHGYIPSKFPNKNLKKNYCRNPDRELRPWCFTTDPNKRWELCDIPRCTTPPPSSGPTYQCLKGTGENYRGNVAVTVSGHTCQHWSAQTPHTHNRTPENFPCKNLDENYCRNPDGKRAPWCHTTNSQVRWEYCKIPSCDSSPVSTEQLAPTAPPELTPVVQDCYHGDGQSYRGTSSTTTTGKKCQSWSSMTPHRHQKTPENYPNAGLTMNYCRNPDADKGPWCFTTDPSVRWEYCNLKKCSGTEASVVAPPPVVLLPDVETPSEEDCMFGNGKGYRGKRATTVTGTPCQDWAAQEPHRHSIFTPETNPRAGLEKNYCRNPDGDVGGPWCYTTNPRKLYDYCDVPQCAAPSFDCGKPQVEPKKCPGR
Protocol: as §3
as §3, with “(Bieth” for “(Bieth, J. G. Methods in Enzymology 248: 59-84”, “bIl” for “bII”

[14] = target: T3, βII Tryptase; test: Irreversible inhibitor kinetic analysis (progress curves), βII tryptase; format: biochemical; details: tryptase 1 nM, 30° C., 100 μM Ac-PRNK-ACC substrate
Protocol: as §3, §4

[15] = range stated over tryptase βI and βII

7-Nle-Thr-Pro-Lys-ACC
λmax, em [1]: 400 nm | λmax, ex [1]: 325 nm | RFU/nM1 [1]: 6.4 RFU/nM | RFU/nM2 [1]: 4.6 RFU/nM

7-Nle-Thr-Pro-Lys-AMC [reference compound]
λmax, em [1]: 390 nm | λmax, ex [1]: 330 nm | RFU/nM1 [1]: 3.3 RFU/nM | RFU/nM2 [1]: 2.2 RFU/nM

NC(=O)Cc1cc(=O)oc2cc(N)ccc12 [7-Amino-4-Carbamoylmethyl-coumarin (ACC), 7-amino-4-carbamoylmethyl-coumarin]
λmax, em [1]: 450 nm | λmax, ex [1]: 350 nm | fluorescence yield relative to the AMC coumarin ([1]; excitation 380 nm, emission 460 nm): approximately 2.8 fold | RFU/nM1 [1]: 5750 RFU/nM | RFU/nM2 [1]: 4390 RFU/nM

CC(=O)N[C@@H](CC(C)C)C(=O)NCC(=O)N1CCC[C@H]1C(=O)N[C@@H](CCCCN)C(=O)Nc1ccc2c(CC(N)=O)cc(=O)oc2c1 [Ac-Leu-Gly-Pro-Lys--ACC] (Ac-LGPK-{ACC})
Km [2]: 195 ± 30 µM

CC(=O)N[C@@H](CC(C)C)C(=O)NCC(=O)N1CCC[C@H]1C(=O)N[C@@H](CCCCN)C(=O)Nc1ccc2c(C)cc(=O)oc2c1 [Ac-Leu-Gly-Pro-Lys-AMC] (Ac-LGPK-{AMC})
Km [2]: 160 ± 25 µM | kcat [2]: 2.3 ± 0.2 s⁻¹

CCCC[C@H](NC(C)=O)C(=O)N[C@H](C(=O)N1CCC[C@H]1C(=O)N[C@@H](CCCCN)C(=O)Nc1ccc2c(CC(N)=O)cc(=O)oc2c1)[C@@H](C)O [Ac-Nle Thr-Pro-Lys--ACC] (Ac-[Nle]TPK-{ACC})
Km [2]: 125 ± 13 µM

CCCC[C@H](NC(C)=O)C(=O)N[C@H](C(=O)N1CCC[C@H]1C(=O)N[C@@H](CCCCN)C(=O)Nc1ccc2c(C)cc(=O)oc2c1)[C@@H](C)O [Ac-Nle-Thr-Pro-Lys-AMC] (Ac-[Nle]TPK-{AMC})
Km [2]: 115 ± 10 µM | kcat [2]: 31.0 ± 0.9 s⁻¹

CC(=O)N1CCC[C@H]1C(=O)N[C@@H](C)C(=O)N[C@@H](CC(N)=O)C(=O)N[C@@H](CCCCN)C(=O)Nc1ccc2c(CC(N)=O)cc(=O)oc2c1 [Ac-PANK-ACC] (Ac-PANK-{ACC})
Km [3]: 111 ± 9.8 µM | Km [4]: 133 ± 15.6 µM

CC(=O)N1CCC[C@H]1C(=O)N[C@@H](CCCNC(=N)N)C(=O)N[C@@H](CC(N)=O)C(=O)N[C@@H](CCCCN)C(=O)Nc1ccc2c(CC(N)=O)cc(=O)oc2c1 [Ac-PRNK-ACC] (Ac-PRNK-{ACC})
Km [3]: 8.9 ± 0.9 µM | Km [4]: 14.5 ± 1.9 µM

CC(=O)N1CCC[C@H]1C(=O)N[C@@H](CCCNC(=N)N)C(=O)N[C@@H](CC(N)=O)C(=O)N[C@@H](CCCNC(=N)N)C(=O)Nc1ccc2c(CC(N)=O)cc(=O)oc2c1 [Ac-PRNR-ACC] (Ac-PRNR-{ACC})
activity relative to Ac-PRNK-ACC substrate [3, 15]: 70-90% | Km [3]: 16.5 ± 2.7 µM | activity relative to Ac-PRNK-ACC substrate [4, 15]: 70-90% | Km [4]: 18.6 ± 2.6 µM

CC(=O)N1CCC[C@H]1C(=O)N[C@@H](CCCNC(=N)N)C(=O)N[C@H](C(=O)N[C@@H](CCCCN)C(=O)Nc1ccc2c(CC(N)=O)cc(=O)oc2c1)[C@@H](C)O [Ac-PRTK-ACC] (Ac-PRTK-{ACC})
Km [3]: 14.7 ± 1.4 µM | Km [4]: 23.4 ± 2.3 µM

Ac-Leu-Thr-Phe-Lys-ACC (Ac-LTFK-{ACC}; SMILES CC(=O)N[C@@H](CC(C)C)C(=O)N[C@H](C(=O)N[C@@H](Cc1ccccc1)C(=O)N[C@@H](CCCCN)C(=O)Nc1ccc2c(CC(N)=O)cc(=O)oc2c1)[C@@H](C)O)
cleavage products observed [5]: cleavage between Thr-Phe

Ac-PRNK-CH2Cl
Percent Inhibition [6]: 0 | association rate constant, kass [7]: 5000 ± 200 M⁻¹ s⁻¹ | Percent Inhibition [8]: 95 | Percent Inhibition [9]: 0 | Percent Inhibition [10]: 95 | Percent Inhibition [11]: 34 | Percent Inhibition [12]: 0 | Percent Inhibition [13]: 63 | association rate constant, kass [14]: 5000 ± 200 M⁻¹ s⁻¹
